# Results reported in ChEMBL document CHEMBL5154882, “Discovery of 4-Hydroxyquinazoline Derivatives as Small Molecular BET/PARP1 Inhibitors That Induce Defective Homologous Recombination and Lead to Synthetic Lethality for Triple-Negative Breast Cancer Therapy” (J Med Chem, 2022).
# Calls of active or inactive are those of the source. No cut-off for these calls is given here.
# Tests used:
# [1] = system: MDA-MB-468; assay: Induction of apoptosis in human MDA-MB-468 cells assessed as up-regulation of Bax protein level at 20 uM incubated for 72 hrs by Western blot analysis; type: functional, cell-based
# [2] = Toxicity in BALB/c nude mouse xenografted with human MDA-MB-468 cells assessed as morphological changes in liver at 40 to 80 mg/kg, ig administered daily for 16 days measured every 3 days by hematoxyin-eosin staining based analysis; type: organism-based; conditions: in vivo, po, 384 h, dose 40-80 mg/kg, time 16 day
# [3] = Toxicity in BALB/c nude mouse xenografted with human MDA-MB-468 cells assessed as morphological changes in spleen at 40 to 80 mg/kg, ig administered daily for 16 days measured every 3 days by hematoxyin-eosin staining based analysis; type: organism-based; conditions: in vivo, po, 384 h, dose 40-80 mg/kg, time 16 day
# [4] = Toxicity in BALB/c nude mouse xenografted with human MDA-MB-468 cells assessed as morphological changes in heart at 80 mg/kg, ig administered daily for 16 days measured every 3 days by hematoxyin-eosin staining based analysis; type: organism-based; conditions: in vivo, po, 384 h, time 16 day
# [5] = target: Poly [ADP-ribose] polymerase 1 (Homo sapiens, UniProt P09874)
# Description: Inhibition of PARP1 (unknown origin)
# [6] = system: MDA-MB-468; assay: Cell cycle arrest in human MDA-MB-468 cells assessed as accumulation at G0/G1 phase at 5 uM incubated for 72 hrs by propidium iodide staining-based flow cytometry analysis (reference value: 61.4%); type: functional
# [7] = AUC (0 to infinity) in Sprague-Dawley rat at 1 mg/kg, iv; type: ADME, organism-based; set-up: time infinity, dose 1 mg/kg, route iv; conditions: in vivo
# [8] = Toxicity in BALB/c nude mouse xenografted with human MDA-MB-468 cells assessed as change in body weight at 80 mg/kg, ig administered daily for 16 days measured every 3 days; type: organism-based; conditions: in vivo, po, 384 h, time 16 day
# [9] = system: MDA-MB-468; assay: Induction of apoptosis in human MDA-MB-468 cells assessed as late apoptotic cells at 5 uM incubated for 72 hrs by annexin V/propidium iodide staining-based flow cytometry analysis (reference value: 1.34%); type: functional
# [10] = AUC (0 to t) in Sprague-Dawley rat at 10 mg/kg, po; type: ADME, organism-based; set-up: dose 10 mg/kg, route po; conditions: in vivo
# [11] = AUC (0 to infinity) in Sprague-Dawley rat at 10 mg/kg, po; type: ADME, organism-based; set-up: time infinity, dose 10 mg/kg, route po; conditions: in vivo
# [12] = system: MDA-MB-231; assay: Antitumor activity against human MDA-MB-231 cells xenografted in BALB/c nude mouse assessed as downregulation of […] downstream protein at 40 mg/kg by Western blot analysis; type: functional, organism-based
# [13] = Toxicity in BALB/c nude mouse xenografted with human MDA-MB-468 cells assessed as morphological changes in lung at 40 to 80 mg/kg, ig administered daily for 16 days measured every 3 days by hematoxyin-eosin staining based analysis; type: organism-based; conditions: in vivo, po, 384 h, dose 40-80 mg/kg, time 16 day
# [14] = system: MDA-MB-231; assay: Antitumor activity against human MDA-MB-231 cells xenografted in BALB/c nude mouse assessed as reduction in PAR expression at 40 to 80 mg/kg incubated for 30 to 40 mins by immunohistochemical analysis; type: functional, organism-based; conditions: dose 40-80 mg/kg, time 30-40 min
# [15] = system: MDA-MB-468; assay: Cell cycle arrest in human MDA-MB-468 cells assessed as accumulation at G0/G1 phase at 10 uM incubated for 72 hrs by propidium iodide staining-based flow cytometry analysis (reference value: 61.4%); type: functional
# [16] = system: MDA-MB-468; assay: Induction of apoptosis in human MDA-MB-468 cells assessed as late apoptotic cells at 10 uM incubated for 72 hrs by annexin V/propidium iodide staining-based flow cytometry analysis (reference value: 1.34%); type: functional
# [17] = system: MDA-MB-468; assay: Induction of apoptosis in human MDA-MB-468 cells assessed as late apoptotic cells at 20 uM incubated for 72 hrs by annexin V/propidium iodide staining-based flow cytometry analysis (reference value: 1.34%); type: functional
# [18] = target: Bromodomain-containing protein 4 (Homo sapiens, UniProt O60885); assay: Inhibition of BRD4 BD2 (unknown origin)
# [19] = system: MDA-MB-468; assay: Cell cycle arrest in human MDA-MB-468 cells assessed as accumulation at G2/M phase at 5 uM incubated for 72 hrs by propidium iodide staining-based flow cytometry analysis (reference value: 16.1%); type: functional
# [20] = system: MDA-MB-468; assay: Inhibition of homologous recombinant repair in human MDA-MB-468 cells assessed as down-regulation of Rad51 expression at 5 to 20 uM by Western blot analysis; type: functional, cell-based; conditions: dose 5-20 µM, DDE = dose-dependent effect
# [21] = system: MDA-MB-468; assay: Antitumor activity against human MDA-MB-468 cells xenografted in BALB/c nude mouse model assessed as tumor growth inhibition at 40 to 80 mg/kg, ig administered daily for 16 days measured every 3 days relative to control; type: functional; conditions: dose 40-80 mg/kg, time 16 day
# [22] = Toxicity in BALB/c nude mouse xenografted with human MDA-MB-468 cells assessed as change in body weight at 40 to 80 mg/kg, ig administered daily for 16 days measured every 3 days; type: organism-based; conditions: in vivo, po, 384 h, dose 40-80 mg/kg, time 16 day
# [23] = system: MDA-MB-231; assay: Antitumor activity against human MDA-MB-231 cells xenografted in BALB/c nude mouse assessed as reduction in Rad51 expression at 40 to 80 mg/kg incubated for 30 to 40 mins by immunohistochemical analysis; type: functional, organism-based; conditions: dose 40-80 mg/kg, time 30-40 min
# [24] = system: MDA-MB-468; assay: Cell cycle arrest in human MDA-MB-468 cells assessed as accumulation at S phase at 20 uM incubated for 72 hrs by propidium iodide staining-based flow cytometry analysis (reference value: 21.1%); type: functional
# [25] = system: MDA-MB-468; assay: Downregulation of c-Myc expression level in human MDA-MB-468 cells by Western blot analysis; type: functional, cell-based; conditions: dose 5-20 µM, DDE = dose-dependent effect
# [26] = system: MDA-MB-231; assay: Antitumor activity against human MDA-MB-231 cells xenografted in BALB/c nude mouse assessed as downregulation of BRD4 downstream protein at 40 mg/kg by Western blot analysis; type: functional, organism-based
# [27] = AUC (0 to t) in Sprague-Dawley rat at 1 mg/kg, iv; type: ADME, organism-based; set-up: dose 1 mg/kg, route iv; conditions: in vivo
# [28] = system: MDA-MB-468; assay: Downregulation of BRD4 expression level in human MDA-MB-468 cells by Western blot analysis; type: functional, cell-based; conditions: dose 5-20 µM, DDE = dose-dependent effect
# [29] = system: MDA-MB-468; assay: Cell cycle arrest in human MDA-MB-468 cells assessed as accumulation at G2/M phase at 20 uM incubated for 72 hrs by propidium iodide staining-based flow cytometry analysis (reference value: 16.1%); type: functional
# [30] = system: MDA-MB-468; assay: Cell cycle arrest in human MDA-MB-468 cells assessed as accumulation at S phase at 10 uM incubated for 72 hrs by propidium iodide staining-based flow cytometry analysis (reference value: 21.1%); type: functional
# [31] = system: MDA-MB-231; assay: Induction of DNA damage in human MDA-MB-231 cells assessed as increase in tail DNA measured at 5 to 20 uM after 3 days by comet assay; type: functional, cell-based; conditions: dose 5-20 µM, time 3.0 day
# [32] = system: MDA-MB-468; assay: Induction of apoptosis in human MDA-MB-468 cells assessed as early apoptotic cells at 20 uM incubated for 72 hrs by annexin V/propidium iodide staining-based flow cytometry analysis (reference value: 4.07%); type: functional
# [33] = system: MDA-MB-231; assay: Antiproliferative activity against human MDA-MB-231 cells assessed as reduction in cell viability incubated for 72 hrs by MTT assay; type: functional, cell-based; conditions: MDA-MB-231, 72 h
# [34] = system: MDA-MB-468; assay: Downregulation of PARP1 expression level in human MDA-MB-468 cells by Western blot analysis; type: functional, cell-based; conditions: dose 5-20 µM, DDE = dose-dependent effect
# [35] = system: MDA-MB-468; assay: Inhibition of homologous recombinant repair in human MDA-MB-468 cells assessed as down-regulation of p-RPA32 expression at 5 to 20 uM in by Western blot analysis; type: functional, cell-based; conditions: dose 5-20 µM
# Poly [ADP-ribose] polymerase 1, sequence (P09874 whole entry): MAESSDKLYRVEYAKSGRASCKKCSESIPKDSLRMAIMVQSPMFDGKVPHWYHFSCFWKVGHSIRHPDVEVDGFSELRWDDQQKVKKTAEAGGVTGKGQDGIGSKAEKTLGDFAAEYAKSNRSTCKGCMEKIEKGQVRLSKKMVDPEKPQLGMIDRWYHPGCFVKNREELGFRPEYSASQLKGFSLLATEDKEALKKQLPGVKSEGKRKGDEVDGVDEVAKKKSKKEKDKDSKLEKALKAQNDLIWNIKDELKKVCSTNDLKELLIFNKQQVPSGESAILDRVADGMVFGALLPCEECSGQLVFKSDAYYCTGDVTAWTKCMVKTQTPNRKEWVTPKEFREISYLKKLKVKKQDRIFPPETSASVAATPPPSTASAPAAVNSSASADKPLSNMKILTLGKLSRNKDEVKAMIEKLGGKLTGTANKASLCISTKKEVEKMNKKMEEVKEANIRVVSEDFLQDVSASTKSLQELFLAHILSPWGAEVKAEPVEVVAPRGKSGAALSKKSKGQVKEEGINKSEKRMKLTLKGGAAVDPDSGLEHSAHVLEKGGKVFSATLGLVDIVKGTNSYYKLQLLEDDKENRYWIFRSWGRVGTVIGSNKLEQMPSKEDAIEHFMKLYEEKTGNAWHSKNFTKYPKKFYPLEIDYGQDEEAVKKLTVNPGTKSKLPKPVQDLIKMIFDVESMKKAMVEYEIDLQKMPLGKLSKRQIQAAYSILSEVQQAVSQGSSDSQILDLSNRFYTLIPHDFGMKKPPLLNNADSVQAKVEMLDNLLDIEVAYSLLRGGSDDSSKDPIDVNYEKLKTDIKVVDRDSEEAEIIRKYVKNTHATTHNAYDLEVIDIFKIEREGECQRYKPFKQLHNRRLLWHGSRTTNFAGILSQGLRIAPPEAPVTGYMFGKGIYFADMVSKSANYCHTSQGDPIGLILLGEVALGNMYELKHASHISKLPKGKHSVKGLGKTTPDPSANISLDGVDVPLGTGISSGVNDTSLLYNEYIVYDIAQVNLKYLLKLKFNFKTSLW
structure (smiles),measurement,setting,value
COc1cc(OC)c2c(=O)[nH]c(-c3cccc(Cc4n[nH]c(=O)c5ccccc45)c3)nc2c1,Activity,[1],Active
same,Activity,[2],Non-Toxic
same,Activity,[3],Non-Toxic
same,Activity,[4],Non-Toxic
same,IC50,[5],197 nM
same,Activity,[6],62.3%
same,AUC(0-inf),[7],642 ng·h/mL
same,Activity,[8],Non-Toxic
same,Activity,[9],6.08%
same,AUC(0-t),[10],1490 ng·h/mL
same,AUC(0-inf),[11],1530 ng·h/mL
same,Activity,[12],Active
same,Activity,[13],Non-Toxic
same,Activity,[14],Active
same,Activity,[15],63.2%
same,Activity,[16],4.94%
same,Activity,[17],6.18%
same,IC50,[18],175 nM
same,Activity,[19],16.6%
same,inhibition,[20],Dde
same,TGI,[21],68.7%
same,Activity,[22],Non-Toxic
same,Activity,[23],Active
same,Activity,[24],12.4%
same,Activity,[25],Dde
same,Activity,[26],Active
same,AUC(0-t),[27],629 ng·h/mL
same,Activity,[28],Dde
same,Activity,[29],14%
same,Activity,[30],22.8%
same,Activity,[31],Active
same,Activity,[32],28.26%
same,IC50,[33],6610 nM
same,Activity,[34],Dde
same,inhibition,[35],Active
